# Source: ChEMBL document CHEMBL4043158, “Synthesis and carbonic anhydrase inhibition of polycyclic imides incorporating N-benzenesulfonamide moieties” (Bioorg Med Chem, 2017)
# Biological target: Carbonic anhydrase 9 (Homo sapiens, UniProt Q16790)
# Test: Inhibition of human CA9 pre-incubated for 10 mins by stopped-flow CO2 hydrase assay
row,SMILES,Ki [µM]
1,NS(=O)(=O)c1ccc(N2C(=O)c3cccc4cccc(c34)C2=O)cc1,0.287
2,NS(=O)(=O)c1ccc(CCN2C(=O)c3cccc4cc([N+](=O)[O-])cc(c34)C2=O)cc1,0.242
3,NS(=O)(=O)c1ccc(CN2C(=O)c3cccc4cc([N+](=O)[O-])cc(c34)C2=O)cc1,0.251
4,NS(=O)(=O)c1ccc(CCn2c(=O)c3cc4c(=O)n(CCc5ccc(S(N)(=O)=O)cc5)c(=O)c4cc3c2=O)cc1,2.05
5,NS(=O)(=O)c1ccc(-n2c(=O)c3cc4c(=O)n(-c5ccc(S(N)(=O)=O)cc5)c(=O)c4cc3c2=O)cc1,0.251
6,NS(=O)(=O)c1ccc(Cn2c(=O)c3cc4c(=O)n(Cc5ccc(S(N)(=O)=O)cc5)c(=O)c4cc3c2=O)cc1,0.639
7,NS(=O)(=O)c1ccc(CN2C(=O)c3ccc4c5c(ccc(c35)C2=O)C(=O)N(Cc2ccc(S(N)(=O)=O)cc2)C4=O)cc1,2.78
8,NS(=O)(=O)c1ccc(CCn2c(=O)c3ccccc3c3ccccc3c2=O)cc1,0.301

# These reach a lower Ki. Values come first.
row,Ki [µM],SMILES
1,0.108,NS(=O)(=O)c1ccc(CN2C(=O)c3cccc4cccc(c34)C2=O)cc1
2,0.218,NS(=O)(=O)c1ccc(N2C(=O)c3cccc4cc([N+](=O)[O-])cc(c34)C2=O)cc1
3,0.0931,NS(=O)(=O)c1ccc(-n2c(=O)c3ccccc3c3ccccc3c2=O)cc1
4,0.0255,NS(=O)(=O)CCN1C(=O)c2ccc3c4c(ccc(c24)C1=O)C(=O)N(CCc1ccc(S(N)(=O)=O)cc1)C3=O
5,0.0239,NS(=O)(=O)c1ccc(N2C(=O)c3ccc4c5c(ccc(c35)C2=O)C(=O)N(c2ccc(S(N)(=O)=O)cc2)C4=O)cc1
6,0.108,NS(=O)(=O)c1ccc(CCN2C(=O)c3cccc4cccc(c34)C2=O)cc1
7,0.191,NS(=O)(=O)c1ccc(Cn2c(=O)c3ccccc3c3ccccc3c2=O)cc1
